Experimental data from PubChem BioAssay AID1159559 (GlaxoSmithKline (GSK), 2015).
Active and inactive are the calls of the source.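 The calls were made as follows: active = compounds whose IC50 against parasite growth in infected mouse cells is below 50000 nM; inactive = the rest.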

Each compound was assayed on T. cruzi Tulahuen in NIH-3T3, beta-gal fluorescence, 4 d (assay: T. cruzi intracellular growth inhibition, cell-based (AID 1159559)).

| Structure (SMILES) | IC50 |
| --- | --- |
| Cc1nn(-c2ccccc2)nc1CNC(=O)CN(Cc1ccccn1)Cc1ccccn1 | 4000 nM |
| O=C1NCc2cccc(Nc3nc(NC4CCC(O)CC4)ncc3Br)c21 (stereo not given) | 630 nM |
| O=C(CSc1ccc(F)cc1)N[C@@H](Cc1cnc[nH]1)C(=O)NCCc1ccccc1 | 400 nM |
| CC(C)(C)c1csc(NC(=O)c2ccc([N+](=O)[O-])s2)n1 | 160 nM |
| O=C(c1cc2cc(Cl)ccc2[nH]1)N1CCCCC1c1cccnc1 (stereo not given) | 250 nM |
| N#Cc1ccc(S(=O)(=O)N2CCC3(CCN(c4ccccc4)C3=O)CC2)cc1 | 1300 nM |
| NC(=O)c1ncc(N[C@@H]2CCCNC2)nc1Nc1cccc(Cl)c1 | 320 nM |
| COc1cnc2ccc(=O)n(CCN3CCC(NC/C=C/c4cc(F)ccc4F)CC3)c2c1 | 16 nM |
| COc1ccc(OC)c(NC(=O)c2ccc([N+](=O)[O-])o2)c1 | 3200 nM |
| OCC1CCCCN1c1cc(-c2ccccn2)nc(Nc2ccccc2)n1 (stereo not given) | 790 nM |
| O=C(c1cccc(Nc2ncc(-c3ccc4c(c3)OCO4)cn2)c1)N1CCOCC1 | 6300 nM |
| O=C(NCC1CCCCN1C(=O)c1cccc2ccccc12)c1ccccc1 (stereo not given) | 6300 nM |
| CC(=O)Nc1ccc(-c2cnc(N)c(-c3nc4ccc(F)cc4[nH]3)c2)cc1 | 630 nM |
| Cc1ccccc1NS(=O)(=O)c1ccc2[nH]cc(C(=O)NC3CCCCC3)c(=O)c2c1 | 10000 nM |
| COc1ccc(C2=NCC(CSc3nnc(-c4ccc5c(c4)OCO5)o3)S2)cc1 (stereo not given) | 2500 nM |
| COc1ccc2nccc([C@H](O)CN3CC[C@H](NC(=O)c4ccc(Br)cc4)[C@@H](O)C3)c2n1 | 250 nM |
| CC(c1cc(Cl)cc(Cl)c1)N(C)c1ncc2c(N)nc(N)nc2n1 (stereo not given) | 63 nM |
| O=C(c1ccc(O)c(Cl)c1)N1CCN(c2cnccn2)CC1 | > 50000 nM (inactive) |
| COCc1cc(Nc2ccccc2)nc(-c2ccccn2)n1 | 5000 nM |
| COc1ccc2ncc(F)c(NC(=O)C3(O)CCC(NCc4ccc5c(c4)OCCO5)CC3)c2n1 (stereo not given) | 160 nM |
| O=C(NCCc1ccn(-c2ccccc2)n1)C1CCCCC1 | 1300 nM |
| Cn1nc(C(=O)N2CCc3ccccc32)c2c1CCS(=O)(=O)C2 | 7900 nM |
| COc1ccc(C(=O)NC2CCN(CCn3c(=O)ccc4ncc(F)cc43)CC2)cc1Cl | 500 nM |
| COc1ccccc1-c1c(C)[nH]c2nc(N)nc(C)c12 | 160 nM |
| CCc1cccc(CC)c1-n1c(SCC(=O)NC(=O)NCc2ccco2)nnc1-c1cccnc1 | 13000 nM |
| Nc1nccc(-c2csc(Nc3ccc(Cl)cc3)n2)n1 | 1300 nM |
| Cc1cc(C)cc(NS(=O)(=O)c2cc(-c3cc(C)[nH]n3)ccc2C)c1 | 1000 nM |
| CCOC(=O)c1noc(N)c1-c1ccccc1 | > 50000 nM (inactive) |

| Structure (SMILES) | IC50 |
| --- | --- |
| Cc1cc(=O)n2nc(Oc3ccc(C#N)cc3Cl)sc2n1 | 16000 nM |
| COc1ccc(-c2cnc(NC(=O)c3cc(-c4ccccn4)n[nH]3)n2C)cc1 | 3200 nM |
| Cc1cn[nH]c1C1CCCN(Cc2nc3ccccc3n2C)C1 (stereo not given) | 3200 nM |
| Cc1ccccc1CNC(=O)CN(Cc1ccccn1)Cc1ccccn1 | 5000 nM |
| CC1=NN(C(=O)CCn2cnc([N+](=O)[O-])n2)C(O)(C(F)(F)F)C1 (stereo not given) | 2000 nM |
| CNc1nc(C)nc(N2CCc3cc(C(=O)NCc4ccc(-c5ccn[nH]5)cc4Cl)ccc32)n1 | > 50000 nM (inactive) |
| COc1cc(OC)cc(C(=O)N[C@@H](CC(C)C)C(=O)NC2(C#N)CC2)c1 | > 50000 nM (inactive) |
| O=C(NCCc1cccnc1)c1ccc(-c2ccccc2F)o1 | 100 nM |
| CC(=O)NCCNc1cc(-c2ccnc(Nc3cccc(Cl)c3)n2)ccn1 | 400 nM |
| Cc1nn2c(NCCCO)c3c(nc2c1-c1cccs1)CCC3 | 16000 nM |
| CCCCN(C(=O)c1ccc(NC(=O)C(C)C)cc1)c1ccccc1 | 20000 nM |
| COc1ccc2ncc(Cl)c(CCN3CC[C@@H](NCc4cc5c(cn4)OCS5)[C@H](O)C3)c2n1 | 130 nM |
| Nc1nc(-c2ccccc2)cc(-c2nc3ncccc3[nH]2)n1 | 3200 nM |
| COc1ccc(C(=O)Nc2c(C)nn(COc3cccc(C(F)(F)F)c3)c2C)cc1 | 25000 nM |
| c1ccc(-c2nc(NC3CCCC3)c3ccccc3n2)nc1 | 2000 nM |
| Cc1ccnc(NS(=O)(=O)c2ccc(NC(=O)c3ccc([N+](=O)[O-])s3)cc2)n1 | 2000 nM |
| NS(=O)(=O)c1ccc(Nc2nccc(-c3cnn4ncccc34)n2)cc1 | 2500 nM |
| COc1ccc(C(=O)[C@H]2C[C@@H]2CN(Cc2ccccn2)Cc2ccccn2)cc1 | 1600 nM |
| COc1ccc(-c2cnc(NC(=O)c3ccc(F)cc3)n2C)cc1 | 2500 nM |
| O=C(NC(CO)c1ccc(F)cc1)c1ccc(-c2c[nH]c3ncccc23)s1 (stereo not given) | 10000 nM |
| Cc1[nH]c2ccccc2c(=O)c1Cc1c(C)[nH]c2ccccc2c1=O | 2500 nM |
| CC(C)C[C@H](NC(=O)c1csc(-c2cccs2)n1)C(=O)NC1(C#N)CC1 | 25000 nM |
| Cc1ccc2nc(N(Cc3cccnc3)C(=O)CCc3ccccc3)sc2c1 | 40 nM |
| Cn1nc([N+](=O)[O-])nc1N1CCCCC1 | 1300 nM |
| O=C(NC1CCN(C2Cc3ccc(NS(=O)(=O)c4cc(F)cc(F)c4)cc3C2)CC1)C1CC1 (stereo not given) | > 50000 nM (inactive) |
| COc1cc(-c2noc(CC#N)n2)ccc1OC(F)F | 40000 nM |
| CN(C)CCN(C)Cc1ccc(F)cc1NS(=O)(=O)c1ccc(Cl)c(Cl)c1 | 1600 nM |
